Measured values reported in ChEMBL document CHEMBL5724914, “Linking interpersonal differences in gut microbiota composition and drug biotransformation activity” (2024).

Assay: (§1) The drug is tested on Z-030 corresponding to mouse gut metagenome with ENA study accession number: PRJEB37062 and ENA sample accession number: ERS12561829 for biotransformation under anaerobic condition. The drug concentrations were measured over 9 timepoints collected between 0 and 24 hours of incubation by liquid-chromatography-coupled mass spectrometry (LC–MS)
Conditions: 2 µM
Further: call rule not given here.

Bacterial Biotransformation	SMILES
Compound NOT metabolized	COc1cc2nc(N(C)CCCNC(=O)C3CCCO3)nc(N)c2cc1OC (stereo not given) [ALFUZOSIN]
Compound NOT metabolized	CC(C)NCC(O)COc1ccc(CCOCC2CC2)cc1 (stereo not given) [BETAXOLOL]

Assay: as §1, with “Z-028” for “Z-030”, “ERS12561827” for “ERS12561829”
Conditions: 2 µM

Bacterial Biotransformation	SMILES
Compound NOT metabolized	COc1cc2nc(N(C)CCCNC(=O)C3CCCO3)nc(N)c2cc1OC (stereo not given) [ALFUZOSIN]
Compound NOT metabolized	CC(C)NCC(O)COc1ccc(CCOCC2CC2)cc1 (stereo not given) [BETAXOLOL]

Assay: as §1, with “Z-027” for “Z-030”, “to” for “to mouse gut”, “ERS12561826” for “ERS12561829”
Conditions: 2 µM

Bacterial Biotransformation	SMILES
Compound NOT metabolized	COc1cc2nc(N(C)CCCNC(=O)C3CCCO3)nc(N)c2cc1OC (stereo not given) [ALFUZOSIN]
Compound NOT metabolized	CC(C)NCC(O)COc1ccc(CCOCC2CC2)cc1 (stereo not given) [BETAXOLOL]

Assay: as §1, with “Z-026” for “Z-030”, “to” for “to mouse gut”, “ERS12561825” for “ERS12561829”
Conditions: 2 µM

Bacterial Biotransformation	SMILES
Compound NOT metabolized	COc1cc2nc(N(C)CCCNC(=O)C3CCCO3)nc(N)c2cc1OC (stereo not given) [ALFUZOSIN]
Compound NOT metabolized	CC(C)NCC(O)COc1ccc(CCOCC2CC2)cc1 (stereo not given) [BETAXOLOL]

Assay: as §1, with “Z-024” for “Z-030”, “pig” for “mouse”, “ERS12561823” for “ERS12561829”
Conditions: 2 µM

Bacterial Biotransformation	SMILES
Compound NOT metabolized	COc1cc2nc(N(C)CCCNC(=O)C3CCCO3)nc(N)c2cc1OC (stereo not given) [ALFUZOSIN]
Compound metabolized	CC(C)NCC(O)COc1ccc(CCOCC2CC2)cc1 (stereo not given) [BETAXOLOL]

Assay: as §1, with “Z-020” for “Z-030”, “rabbit” for “mouse”, “ERS12561819” for “ERS12561829”
Conditions: 2 µM

Bacterial Biotransformation	SMILES
Compound NOT metabolized	COc1cc2nc(N(C)CCCNC(=O)C3CCCO3)nc(N)c2cc1OC (stereo not given) [ALFUZOSIN]
Compound NOT metabolized	CC(C)NCC(O)COc1ccc(CCOCC2CC2)cc1 (stereo not given) [BETAXOLOL]

Assay: as §1, with “Z-010” for “Z-030”, “to” for “to mouse gut”, “ERS12561810” for “ERS12561829”
Conditions: 2 µM

Bacterial Biotransformation	SMILES
Compound metabolized	COc1cc2nc(N(C)CCCNC(=O)C3CCCO3)nc(N)c2cc1OC (stereo not given) [ALFUZOSIN]
Compound NOT metabolized	CC(C)NCC(O)COc1ccc(CCOCC2CC2)cc1 (stereo not given) [BETAXOLOL]

Assay: as §1, with “Z-004” for “Z-030”, “to” for “to mouse gut”, “ERS12561804” for “ERS12561829”
Conditions: 2 µM

Bacterial Biotransformation	SMILES
Compound NOT metabolized	COc1cc2nc(N(C)CCCNC(=O)C3CCCO3)nc(N)c2cc1OC (stereo not given) [ALFUZOSIN]
Compound metabolized	CC(C)NCC(O)COc1ccc(CCOCC2CC2)cc1 (stereo not given) [BETAXOLOL]

Assay: as §1, with “Z-002” for “Z-030”, “rabbit” for “mouse”, “ERS12561802” for “ERS12561829”
Conditions: 2 µM

Bacterial Biotransformation	SMILES
Compound metabolized	COc1cc2nc(N(C)CCCNC(=O)C3CCCO3)nc(N)c2cc1OC (stereo not given) [ALFUZOSIN]
Compound metabolized	CC(C)NCC(O)COc1ccc(CCOCC2CC2)cc1 (stereo not given) [BETAXOLOL]

Assay: as §1, with “Z-001” for “Z-030”, “ERS12561801” for “ERS12561829”
Conditions: 2 µM

Bacterial Biotransformation	SMILES
Compound metabolized	COc1cc2nc(N(C)CCCNC(=O)C3CCCO3)nc(N)c2cc1OC (stereo not given) [ALFUZOSIN]
Compound NOT metabolized	CC(C)NCC(O)COc1ccc(CCOCC2CC2)cc1 (stereo not given) [BETAXOLOL]

Assay: as §1, with “WLS-370” for “Z-030”, “human” for “mouse”, “ERS12561793” for “ERS12561829”
Conditions: 2 µM

Bacterial Biotransformation	SMILES
Compound metabolized	COc1cc2nc(N(C)CCCNC(=O)C3CCCO3)nc(N)c2cc1OC (stereo not given) [ALFUZOSIN]
Compound NOT metabolized	CC(C)NCC(O)COc1ccc(CCOCC2CC2)cc1 (stereo not given) [BETAXOLOL]

Assay: as §1, with “WLS-170” for “Z-030”, “human” for “mouse”, “ERS12561762” for “ERS12561829”
Conditions: 2 µM

Bacterial Biotransformation	SMILES
Compound metabolized	COc1cc2nc(N(C)CCCNC(=O)C3CCCO3)nc(N)c2cc1OC (stereo not given) [ALFUZOSIN]
Compound metabolized	CC(C)NCC(O)COc1ccc(CCOCC2CC2)cc1 (stereo not given) [BETAXOLOL]

Assay: as §1, with “WLS-090” for “Z-030”, “human” for “mouse”, “ERS12561753” for “ERS12561829”
Conditions: 2 µM

Bacterial Biotransformation	SMILES
Compound metabolized	COc1cc2nc(N(C)CCCNC(=O)C3CCCO3)nc(N)c2cc1OC (stereo not given) [ALFUZOSIN]
Compound metabolized	CC(C)NCC(O)COc1ccc(CCOCC2CC2)cc1 (stereo not given) [BETAXOLOL]

Conditions: human gut metagenome, 24 h, 2 µM

Bacterial Biotransformation	SMILES
Compound metabolized	COc1cc2nc(N(C)CCCNC(=O)C3CCCO3)nc(N)c2cc1OC (stereo not given) [ALFUZOSIN]
Compound NOT metabolized	CC(C)NCC(O)COc1ccc(CCOCC2CC2)cc1 (stereo not given) [BETAXOLOL]

Conditions: human gut metagenome, 24 h, 2 µM
Remark: another data set of the same source

Bacterial Biotransformation	SMILES
Compound metabolized	COc1cc2nc(N(C)CCCNC(=O)C3CCCO3)nc(N)c2cc1OC (stereo not given) [ALFUZOSIN]
Compound NOT metabolized	CC(C)NCC(O)COc1ccc(CCOCC2CC2)cc1 (stereo not given) [BETAXOLOL]

Conditions: human gut metagenome, 24 h, 2 µM
Remark: another data set of the same source

Bacterial Biotransformation	SMILES
Compound NOT metabolized	COc1cc2nc(N(C)CCCNC(=O)C3CCCO3)nc(N)c2cc1OC (stereo not given) [ALFUZOSIN]
Compound metabolized	CC(C)NCC(O)COc1ccc(CCOCC2CC2)cc1 (stereo not given) [BETAXOLOL]

Conditions: human gut metagenome, 24 h, 2 µM
Remark: another data set of the same source

Bacterial Biotransformation	SMILES
Compound NOT metabolized	COc1cc2nc(N(C)CCCNC(=O)C3CCCO3)nc(N)c2cc1OC (stereo not given) [ALFUZOSIN]
Compound NOT metabolized	CC(C)NCC(O)COc1ccc(CCOCC2CC2)cc1 (stereo not given) [BETAXOLOL]

Conditions: human gut metagenome, 24 h, 2 µM
Remark: another data set of the same source

Bacterial Biotransformation	SMILES
Compound metabolized	COc1cc2nc(N(C)CCCNC(=O)C3CCCO3)nc(N)c2cc1OC (stereo not given) [ALFUZOSIN]
Compound NOT metabolized	CC(C)NCC(O)COc1ccc(CCOCC2CC2)cc1 (stereo not given) [BETAXOLOL]

Conditions: human gut metagenome, 24 h, 2 µM
Remark: another data set of the same source

Bacterial Biotransformation	SMILES
Compound metabolized	COc1cc2nc(N(C)CCCNC(=O)C3CCCO3)nc(N)c2cc1OC (stereo not given) [ALFUZOSIN]
Compound metabolized	CC(C)NCC(O)COc1ccc(CCOCC2CC2)cc1 (stereo not given) [BETAXOLOL]

Conditions: human gut metagenome, 24 h, 2 µM
Remark: another data set of the same source

Bacterial Biotransformation	SMILES
Compound metabolized	COc1cc2nc(N(C)CCCNC(=O)C3CCCO3)nc(N)c2cc1OC (stereo not given) [ALFUZOSIN]
Compound metabolized	CC(C)NCC(O)COc1ccc(CCOCC2CC2)cc1 (stereo not given) [BETAXOLOL]
